Test results published in patent US10494364B2, “Cathepsin K inhibitors and application thereof” (SUNSHINE LAKE PHARMA CO., LTD., priority 2015, dated 2019).
Like-named read-outs stand apart in the source and are kept apart here.

Key:
human cathepsin K = molecular target: T1, human cathepsin K (Homo sapiens, UniProt P43235); assay: Assay of cathepsin K inhibitory activity in vitro; assay type: biochemical; conditions: IC50 against human cathepsin K; substrate Z-Phe-Arg-AMC 10 μM; 25° C.; read-out: Cat-K
T1 sequence (P43235 115-329): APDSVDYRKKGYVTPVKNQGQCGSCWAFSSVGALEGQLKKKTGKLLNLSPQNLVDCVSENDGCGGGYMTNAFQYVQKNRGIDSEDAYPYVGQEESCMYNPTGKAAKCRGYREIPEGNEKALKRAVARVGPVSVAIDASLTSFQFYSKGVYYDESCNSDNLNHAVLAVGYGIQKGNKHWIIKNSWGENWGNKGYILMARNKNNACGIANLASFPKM
Description: Assay Method of Cathepsin K Inhibitory Activity In Vitro
Using 45000-fold diluted cathepsin K solution and 10 μM Z-Phe-Arg-AMC as substrate, the test compound and cathepsin K solution were incubated at 25° C. for 15 min in a 15 μL reaction system according to the optimized experimental condition.

human cathepsin B = human cathepsin B (Homo sapiens, UniProt P07858); assay: Assay of cathepsin B inhibitory activity in vitro; assay type: biochemical; conditions: IC50 against human cathepsin B; substrate Z-Phe-Arg-AMC 10 μM; 25° C.; read-out: Cat-B
Description: Assay Method of Cathepsin B Inhibitory Activity In Vitro
0.01 ng/μL was the final concentration of Cathepsin B in the enzyme reaction, and Z-Phe-Arg-AMC with the final concentration of 10 μM was added into the reaction system as substrate, in the reaction system the test compound and enzyme had been incubated at 25° C. for 15 min.

human cathepsin L = human cathepsin L (Homo sapiens, UniProt P07711); assay: Assay of cathepsin L inhibitory activity in vitro; assay type: biochemical; conditions: IC50 against human cathepsin L; substrate Z-Phe-Arg-AMC 10 μM; 25° C.; read-out: Cat-L
Sequence of human cathepsin L (P07711 114-333): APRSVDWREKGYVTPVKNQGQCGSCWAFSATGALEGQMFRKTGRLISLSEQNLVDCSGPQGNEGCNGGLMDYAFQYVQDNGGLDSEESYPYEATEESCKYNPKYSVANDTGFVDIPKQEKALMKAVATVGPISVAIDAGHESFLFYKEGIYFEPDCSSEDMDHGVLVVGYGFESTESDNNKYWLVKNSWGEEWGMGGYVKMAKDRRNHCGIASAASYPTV
Description: Assay Method of Cathepsin L Inhibitory Activity In Vitro
0.01 ng/μL was the final concentration of Cathepsin L in the enzyme reaction, and Z-Phe-Arg-AMC with the final concentration of 10 μM was added into the reaction system as substrate, in the reaction system the test compound and enzyme had been incubated at 25° C. for 15 min.

human cathepsin S = human cathepsin S (Homo sapiens, UniProt P25774); assay: Assay of cathepsin S inhibitory activity in vitro; assay type: biochemical; conditions: IC50 against human cathepsin S; substrate Z-VVR-AMC 20 μM; 25° C.; read-out: Cat-S
Sequence of human cathepsin S (P25774 115-331): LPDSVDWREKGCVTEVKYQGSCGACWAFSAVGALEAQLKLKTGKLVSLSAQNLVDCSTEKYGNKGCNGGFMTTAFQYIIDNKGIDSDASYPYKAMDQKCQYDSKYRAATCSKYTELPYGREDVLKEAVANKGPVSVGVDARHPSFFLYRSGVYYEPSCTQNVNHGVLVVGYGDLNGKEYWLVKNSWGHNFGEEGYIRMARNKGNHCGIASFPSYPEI
Description: Assay Method of Cathepsin S Inhibitory Activity In Vitro
0.25 ng/L was the final concentration of Cathepsin S in the enzyme reaction, and Z-VVR-AMC with the final concentration of 20 μM was added into the reaction system as substrate, in the reaction system the test compound and enzyme had been incubated at 25° C. for 15 min.

[1] = Pharmacokinetic test in SD rats (iv and oral gavage), plasma by LC/MS/MS; assay type: in vivo; conditions: rat, male SD rats; for AUC(0-inf): read-out: AUCINF h * ng/ml; for AUC(0-t): read-out: AUClast h * ng/ml; for half-life: read-out: T1/2 h (converted); for Vd: read-out: Vss; for bioavailability: po 5 mg/kg vs iv 1 mg/kg
Description: Healthy adult male SD rats were divided into groups with administration of compound by intravenous injection and oral gavage.
2. Preparation of the Test Compound Solution:
A certain amount of the test compound was weighed, and then mixed with 5% DMSO, 10% Kolliphor HS15 and 85% Saline to prepare a clarified solution.
3. Administration and Sample Collection:
All groups were fasted for 12 hours before administering, free drinking, and fed at 3 hours after administration. Each group was administered with test compound by vein intravenous (iv, 1 mg/kg) in the hind foot and oral gavage (po, 5 mg/kg) independently. The blood samples were collected from tail vein at the time point of 0 h, 0.083 h, 0.25 h, 0.5 h, 1 h, 2 h, 4 h, 6 h, 8 h and 24 h after administration and the amount of blood sample collected at each time point was about 200-400 μL. The blood samples collected at each time point were independently placed in K2EDTA anticoagulation tube and preserved in the incubator containing ice packs. The plasma of each blood sample above was separated by centrifugation at 4600 r/min at 4° C. for 5 min in 15 minutes after collecting. The plasma samples were preserved at −80° C. for measuring.
The content of the compound in plasma of rat after administration was determined by LC/MS/MS method.

Structure (SMILES) | IC50 (human cathepsin K) [nM] | IC50 (human cathepsin B) [nM] | IC50 (human cathepsin L) [nM] | IC50 (human cathepsin S) [nM] | Cmax ([1]; iv 1 mg/kg) [ng/mL] | Tmax ([1]; iv 1 mg/kg) [h] | clearance ([1]; iv 1 mg/kg) [mL/min/kg] | AUC(0-inf) ([1]; iv 1 mg/kg) [ng·h/mL] | AUC(0-t) ([1]; iv 1 mg/kg) [ng·h/mL] | half-life ([1]; iv 1 mg/kg) [h] | Vd ([1]; iv 1 mg/kg) [L/kg] | Cmax ([1]; po 5 mg/kg) [ng/mL] | Tmax ([1]; po 5 mg/kg) [h] | bioavailability [1] [%] | AUC(0-inf) ([1]; po 5 mg/kg) [ng·h/mL] | AUC(0-t) ([1]; po 5 mg/kg) [ng·h/mL] | half-life ([1]; po 5 mg/kg) [h]
Cc1cc(-c2ccc3cc(C(=O)NC4(C(=O)NC5(C#N)CC5)CCC(F)(F)CC4)oc3c2)ccc1-n1cncn1 [Example 43, N-(1-((1-cyanocyclopropyl)carbamoyl)-4,4-difluorocyclohexyl)-6-(3-methyl-4-(1H-1,2,4-triazol-1-yl)phenyl)benzofuran-2-carboxamide] | 0.69 | 440 | > 10000 | 1340 | 382 | 0.78 | 4.13 | 4190 | 3800 | 7.1 | 2.27 | 390 | 4 | 72.1 | 15200 | 14300 | 5.84
N#CC1(NC(=O)C2(NC(=O)c3cc4ccc(-c5ccc(-n6cncn6)c(OC(F)F)c5)cc4o3)CCC(F)(F)CC2)CC1 [Example 53, N-(1-((1-cyanocyclopropyl)carbamoyl)-4,4-difluorocyclohexyl)-6-(3-(difluoromethoxy)-4-(1H-1,2,4-triazol-1-yl)phenyl)benzofuran-2-carboxamide] | 1.4 | 2500 | > 10000 | > 10000 | 798 | 0.083 | 2.91 | 5740 | 5470 | 5.9 | 1.2 | 2230 | 2.67 | 75.6 | 21700 | 21100 | 4.66
N#CC1(NC(=O)C2(NC(=O)c3cc4ccc(-c5ccc(-n6ccnn6)cc5)cc4o3)CCC(F)(F)CC2)CC1 [Example 18, 6-(4-(1H-1,2,3-triazol-1-yl)phenyl)-N-(1-((1-cyanocyclopropyl)carbamoyl)-4,4-difluorocyclohexyl)benzofuran-2-carboxamide] | 2.2 | 806 | > 10000 | 2800 | 500 | 0.083 | 5.14 | 3320 | 3210 | 4.72 | 1.92 | 1380 | 3.33 | 98.6 | 19900 | 18600 | 5.65
N#CC1(NC(=O)C2(NC(=O)c3cc4ccc(-c5ccc(-n6cncn6)cc5)cc4o3)CCC(F)(F)CC2)CC1 [Example 12, 6-(4-(1H-1,2,4-triazol-1-yl)phenyl)-N-(1-((1-cyanocyclopropyl)carbamoyl)-4,4-difluorocyclohexyl)benzofuran-2-carboxamide] | 1.8 | 1400 | > 10000 | 2500 | 1110 | 0.08 | 1.8 | 9230 | 8150 | 7.84 | 1.09 | 1890 | 4.67 | 60.6 | 28400 | 25100 | 6.14
CCOc1cc(-c2ccc3cc(C(=O)NC4(C(=O)NC5(C#N)CC5)CCC(F)(F)CC4)oc3c2)ccc1-n1cncn1 [Example 54, N-(1-((1-cyanocyclopropyl)carbamoyl)-4,4-difluorocyclohexyl)-6-(3-ethoxy-4-(1H-1,2,4-triazol-1-yl)phenyl)benzofuran-2-carboxamide] | 1.3 | 5000 | > 10000 | > 10000 | 1240 | 0.33 | 1.73 | 9700 | 9280 | 5.59 | 0.69 | 2260 | 3 | 46.9 | 22700 | 21900 | 5.06
N#CC1(NC(=O)C2(NC(=O)c3cc4ccc(-c5ccc(C(O)C(N)=O)cc5)cc4o3)CCC(F)(F)CC2)CC1 (stereo not shown) [Example 90] | 1.5 | 1200 | > 10000 | 170 | – | – | – | – | – | – | – | – | – | – | – | – | –
N#CC1(NC(=O)C2(NC(=O)c3cc4ccc(-c5ccc(C6(O)COC6)nc5)cc4o3)CCCCC2)CC1 [Example 77] | 0.67 | 178 | ≥ 10000 | 1050 | – | – | – | – | – | – | – | – | – | – | – | – | –
N#CC1(NC(=O)C2(NC(=O)c3cc4ccc(-c5ccc(C6(O)COC6)cc5)cc4o3)CCCCC2)CC1 [Example 72] | 0.5 | 727 | > 10000 | > 10000 | – | – | – | – | – | – | – | – | – | – | – | – | –
